Source: PubChem BioAssay AID1259407 (Chemical Carcinogenesis Research Information System (CCRIS), 2018)
Activity calls are given as the source filed them. How the calls were made is not given here.

System: CCRIS mutagenicity, Ames/micronucleus/aberration tests
Test: CCRIS mutagenicity studies
[1] = Test System: AMES SALMONELLA TYPHIMURIUM, Strain/Indicator: TA98, Metabolic Activation: NONE, Method: PREINCUBATION
[2] = Test System: AMES SALMONELLA TYPHIMURIUM, Strain/Indicator: TA100, Metabolic Activation: NONE, Method: PREINCUBATION
[3] = Test System: AMES SALMONELLA TYPHIMURIUM, Strain/Indicator: TA1535, Metabolic Activation: NONE, Method: PREINCUBATION

Measured: mutagenic call

Nc1ccc2ccc3cccc4ccc1c2c34
active: Test System: AMES SALMONELLA TYPHIMURIUM, Strain/Indicator: TA98(1,8-DNP6), Metabolic Activation: NONE, Method: STANDARD PLATE active; positive | Test System: AMES SALMONELLA TYPHIMURIUM, Strain/Indicator: TA98(1,8-DNP6), Metabolic Activation: RAT, LIVER, S-9, AROCLOR 1254, Method: STANDARD PLATE active; positive | Test System: AMES SALMONELLA TYPHIMURIUM, Strain/Indicator: TA98(NR), Metabolic Activation: NONE, Method: STANDARD PLATE active; positive | Test System: AMES SALMONELLA TYPHIMURIUM, Strain/Indicator: TA98(NR), Metabolic Activation: RAT, LIVER, S-9, AROCLOR 1254, Method: STANDARD PLATE active; positive | Test System: AMES SALMONELLA TYPHIMURIUM, Strain/Indicator: TA98, Metabolic Activation: NONE, Method: STANDARD PLATE active; positive | Test System: AMES SALMONELLA TYPHIMURIUM, Strain/Indicator: TA98, Metabolic Activation: RAT, LIVER, S-9, AROCLOR 1254 (2 OR 4%), Method: STANDARD PLATE active; positive | Test System: AMES SALMONELLA TYPHIMURIUM, Strain/Indicator: TA100, Metabolic Activation: RAT, LIVER, S-9, AROCLOR 1254, Method: STANDARD PLATE active; positive | Test System: AMES SALMONELLA TYPHIMURIUM, Strain/Indicator: TA1537, Metabolic Activation: RAT, LIVER, S-9, AROCLOR 1254, Method: STANDARD PLATE active; positive | Test System: AMES SALMONELLA TYPHIMURIUM, Strain/Indicator: TA1538, Metabolic Activation: RAT, LIVER, S-9, AROCLOR 1254, Method: STANDARD PLATE active; positive
inactive: End Point: IN VITRO CHROMOSOMAL ABERRATIONS, Test System: CHINESE HAMSTER LUNG (CHL) CELLS, Metabolic Activation: NONE inactive; negative | Test System: AMES SALMONELLA TYPHIMURIUM, Strain/Indicator: TA100, Metabolic Activation: NONE, Method: STANDARD PLATE inactive; negative | Test System: AMES SALMONELLA TYPHIMURIUM, Strain/Indicator: TA100, Metabolic Activation: RAT, LIVER, S-9, AROCLOR 1254 (4%), Method: STANDARD PLATE inactive; negative | Test System: AMES SALMONELLA TYPHIMURIUM, Strain/Indicator: TA1535, Metabolic Activation: RAT, LIVER, S-9, AROCLOR 1254 (4%), Method: STANDARD PLATE inactive; negative | Test System: AMES SALMONELLA TYPHIMURIUM, Strain/Indicator: TA1537, Metabolic Activation: RAT, LIVER, S-9, AROCLOR 1254 (4%), Method: STANDARD PLATE inactive; negative | Test System: AMES SALMONELLA TYPHIMURIUM, Strain/Indicator: TA1538, Metabolic Activation: NONE, Method: STANDARD PLATE inactive; negative

CCCCCCCOc1ccccc1NC(=O)OC(C)CN(CC)CC (stereo not given)
inactive: Test System: AMES SALMONELLA TYPHIMURIUM, Strain/Indicator: TA98, Metabolic Activation: MOUSE, LIVER, S-9, AROCLOR 1254, Method: PREINCUBATION inactive; negative | [1] inactive; negative | Test System: AMES SALMONELLA TYPHIMURIUM, Strain/Indicator: TA100, Metabolic Activation: MOUSE, LIVER, S-9, AROCLOR 1254, Method: PREINCUBATION inactive; negative | [2] inactive; negative | Test System: AMES SALMONELLA TYPHIMURIUM, Strain/Indicator: TA1535, Metabolic Activation: MOUSE, LIVER, S-9, AROCLOR 1254, Method: PREINCUBATION inactive; negative | [3] inactive; negative | Test System: AMES SALMONELLA TYPHIMURIUM, Strain/Indicator: TA1538, Metabolic Activation: MOUSE, LIVER, S-9, AROCLOR 1254, Method: PREINCUBATION inactive; negative | Test System: AMES SALMONELLA TYPHIMURIUM, Strain/Indicator: TA1538, Metabolic Activation: NONE, Method: PREINCUBATION inactive; negative | Test System: AMES SALMONELLA TYPHIMURIUM, Strain/Indicator: TA1978, Metabolic Activation: MOUSE, LIVER, S-9, AROCLOR 1254, Method: PREINCUBATION inactive; negative | Test System: AMES SALMONELLA TYPHIMURIUM, Strain/Indicator: TA1978, Metabolic Activation: NONE, Method: PREINCUBATION inactive; negative | Test System: E. COLI, Strain/Indicator: CM611 UVRA/LEXA, Metabolic Activation: MOUSE, LIVER, S-9, AROCLOR 1254, Method: PREINCUBATION inactive; negative | Test System: E. COLI, Strain/Indicator: CM611 UVRA/LEXA, Metabolic Activation: NONE, Method: PREINCUBATION inactive; negative | Test System: E. COLI, Strain/Indicator: WP2, Metabolic Activation: MOUSE, LIVER, S-9, AROCLOR 1254, Method: PREINCUBATION inactive; negative | Test System: E. COLI, Strain/Indicator: WP2, Metabolic Activation: NONE, Method: PREINCUBATION inactive; negative | Test System: E. COLI, Strain/Indicator: WP2 UVRA, Metabolic Activation: MOUSE, LIVER, S-9, AROCLOR 1254, Method: PREINCUBATION inactive; negative | Test System: E. COLI, Strain/Indicator: WP2 UVRA, Metabolic Activation: NONE, Method: PREINCUBATION inactive; negative | Test System: E. COLI, Strain/Indicator: WP67 UVRA/POLA, Metabolic Activation: MOUSE, LIVER, S-9, AROCLOR 1254, Method: PREINCUBATION inactive; negative | Test System: E. COLI, Strain/Indicator: WP67 UVRA/POLA, Metabolic Activation: NONE, Method: PREINCUBATION inactive; negative

NC(Cc1ccc(F)cc1)C(=O)O (stereo not given)
inactive: Test System: AMES SALMONELLA TYPHIMURIUM, Strain/Indicator: TA98, Metabolic Activation: HAMSTER, LIVER, S-9, AROCLOR 1254 (10%), Method: PREINCUBATION inactive; negative | [1] inactive; negative | Test System: AMES SALMONELLA TYPHIMURIUM, Strain/Indicator: TA98, Metabolic Activation: RAT, LIVER, S-9, AROCLOR 1254 (10%), Method: PREINCUBATION inactive; negative | Test System: AMES SALMONELLA TYPHIMURIUM, Strain/Indicator: TA100, Metabolic Activation: HAMSTER, LIVER, S-9, AROCLOR 1254 (10%), Method: PREINCUBATION inactive; negative | [2] inactive; negative | Test System: AMES SALMONELLA TYPHIMURIUM, Strain/Indicator: TA100, Metabolic Activation: RAT, LIVER, S-9, AROCLOR 1254 (10%), Method: PREINCUBATION inactive; negative | Test System: AMES SALMONELLA TYPHIMURIUM, Strain/Indicator: TA1535, Metabolic Activation: HAMSTER, LIVER, S-9, AROCLOR 1254 (10%), Method: PREINCUBATION inactive; negative | [3] inactive; negative | Test System: AMES SALMONELLA TYPHIMURIUM, Strain/Indicator: TA1535, Metabolic Activation: RAT, LIVER, S-9, AROCLOR 1254 (10%), Method: PREINCUBATION inactive; negative | Test System: AMES SALMONELLA TYPHIMURIUM, Strain/Indicator: TA1537, Metabolic Activation: HAMSTER, LIVER, S-9, AROCLOR 1254 (10%), Method: PREINCUBATION inactive; negative | Test System: AMES SALMONELLA TYPHIMURIUM, Strain/Indicator: TA1537, Metabolic Activation: NONE, Method: PREINCUBATION inactive; negative | Test System: AMES SALMONELLA TYPHIMURIUM, Strain/Indicator: TA1537, Metabolic Activation: RAT, LIVER, S-9, AROCLOR 1254 (10%), Method: PREINCUBATION inactive; negative
